≈ marks a conversion by molar mass, not a printed value. Entries after “also recorded” stand apart in the source; their conditions may differ. Read-outs that look alike come from different tables or passages of the source. Positions of bridges follow the written chain, without caps; N, C: chain ends. Residues, ends and D or L forms follow the SMILES beside them.
Legend:
[1] = test system: Salmonella enterica serovar newport
[2] = test system: B. multivorans ATCC 17616
[3] = test system: B. cepacia ATCC 25416
[4] = test system: Burkholderia thailandensis E264
[5] = test system: B. multivorans ATCC 17616; remark: listed apart in the source
[6] = test system: Burkholderia gladioli ATCC 10248
[7] = test system: B. mallei Old ISU
[8] = test system: Pseudomonas aeruginosa PAO1
[9] = test system: B. mallei NVSL 86-567-2
[10] = test system: B. mallei Old ISU; remark: listed apart in the source
[11] = test system: Burkholderia multivorans; format: cell-based
[12] = target: E. coli RNA polymerase (Escherichia coli, UniProt P0A8T7+P0A8V2); test: in vitro abortive transcription initiation assay (RNAP inhibition); format: biochemical
[13] = test system: B. mallei NVSL 86-567-2; remark: listed apart in the source
[14] = thermostability analysis via LC-MS; details: heated to 95° C.; 2 h for the LC-MS sample
[15] = test system: Burkholderia pseudomallei Bp82
[16] = test system: B. cepacia ATCC 25416; remark: listed apart in the source
[17] = test system: Burkholderia pseudomallei 576mn
[18] = test system: Enterohemorrhagic Escherichia coli O157:H7 TUV-93-0
[19] = test system: Burkholderia multivorans ATCC 17616
[20] = test system: B. pseudomallei; format: cell-based, Burkholderia pseudomallei
[21] = test system: Salmonella enterica serovar newport; details: cited from earlier work
[22] = test system: Enterohemorrhagic Escherichia coli O157:H7 TUV-93-0; details: E. coli; cited from earlier work

E. coli RNA polymerase, sequence (P0A8T7 whole entry): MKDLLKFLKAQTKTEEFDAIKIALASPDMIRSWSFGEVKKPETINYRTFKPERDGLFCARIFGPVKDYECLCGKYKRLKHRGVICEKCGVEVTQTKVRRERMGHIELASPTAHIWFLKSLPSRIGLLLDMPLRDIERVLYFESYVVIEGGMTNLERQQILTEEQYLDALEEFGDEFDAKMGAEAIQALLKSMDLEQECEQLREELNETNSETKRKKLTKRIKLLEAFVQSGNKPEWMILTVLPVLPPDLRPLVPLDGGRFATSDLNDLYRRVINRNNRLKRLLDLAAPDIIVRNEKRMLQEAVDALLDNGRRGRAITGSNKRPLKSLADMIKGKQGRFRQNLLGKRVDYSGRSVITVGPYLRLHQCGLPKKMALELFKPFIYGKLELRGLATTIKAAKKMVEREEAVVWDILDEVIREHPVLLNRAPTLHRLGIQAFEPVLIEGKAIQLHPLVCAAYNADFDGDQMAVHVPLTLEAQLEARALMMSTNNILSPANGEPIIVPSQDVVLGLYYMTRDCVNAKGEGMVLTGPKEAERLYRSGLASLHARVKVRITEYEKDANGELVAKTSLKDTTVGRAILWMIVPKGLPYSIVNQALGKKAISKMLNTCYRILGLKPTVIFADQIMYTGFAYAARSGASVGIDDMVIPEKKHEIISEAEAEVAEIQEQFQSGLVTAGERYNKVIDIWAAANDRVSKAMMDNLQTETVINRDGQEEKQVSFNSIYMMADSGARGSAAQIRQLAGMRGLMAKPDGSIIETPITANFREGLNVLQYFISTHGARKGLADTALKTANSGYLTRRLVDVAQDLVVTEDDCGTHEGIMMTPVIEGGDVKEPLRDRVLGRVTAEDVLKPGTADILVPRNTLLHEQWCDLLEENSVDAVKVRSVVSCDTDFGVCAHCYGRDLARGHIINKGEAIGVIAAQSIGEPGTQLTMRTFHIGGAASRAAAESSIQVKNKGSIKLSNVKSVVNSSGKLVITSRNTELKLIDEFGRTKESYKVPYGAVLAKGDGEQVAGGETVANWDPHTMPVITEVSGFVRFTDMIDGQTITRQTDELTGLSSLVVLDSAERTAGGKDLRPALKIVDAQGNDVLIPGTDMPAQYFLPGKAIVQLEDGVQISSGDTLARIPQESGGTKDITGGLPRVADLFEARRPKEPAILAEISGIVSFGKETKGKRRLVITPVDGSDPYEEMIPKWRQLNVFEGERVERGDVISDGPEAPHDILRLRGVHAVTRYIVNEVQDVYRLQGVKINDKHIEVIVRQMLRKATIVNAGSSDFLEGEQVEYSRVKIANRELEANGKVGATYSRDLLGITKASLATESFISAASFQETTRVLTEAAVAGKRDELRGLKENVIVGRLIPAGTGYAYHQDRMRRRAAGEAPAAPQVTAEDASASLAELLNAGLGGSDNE
E. coli RNA polymerase, sequence (P0A8V2 whole entry): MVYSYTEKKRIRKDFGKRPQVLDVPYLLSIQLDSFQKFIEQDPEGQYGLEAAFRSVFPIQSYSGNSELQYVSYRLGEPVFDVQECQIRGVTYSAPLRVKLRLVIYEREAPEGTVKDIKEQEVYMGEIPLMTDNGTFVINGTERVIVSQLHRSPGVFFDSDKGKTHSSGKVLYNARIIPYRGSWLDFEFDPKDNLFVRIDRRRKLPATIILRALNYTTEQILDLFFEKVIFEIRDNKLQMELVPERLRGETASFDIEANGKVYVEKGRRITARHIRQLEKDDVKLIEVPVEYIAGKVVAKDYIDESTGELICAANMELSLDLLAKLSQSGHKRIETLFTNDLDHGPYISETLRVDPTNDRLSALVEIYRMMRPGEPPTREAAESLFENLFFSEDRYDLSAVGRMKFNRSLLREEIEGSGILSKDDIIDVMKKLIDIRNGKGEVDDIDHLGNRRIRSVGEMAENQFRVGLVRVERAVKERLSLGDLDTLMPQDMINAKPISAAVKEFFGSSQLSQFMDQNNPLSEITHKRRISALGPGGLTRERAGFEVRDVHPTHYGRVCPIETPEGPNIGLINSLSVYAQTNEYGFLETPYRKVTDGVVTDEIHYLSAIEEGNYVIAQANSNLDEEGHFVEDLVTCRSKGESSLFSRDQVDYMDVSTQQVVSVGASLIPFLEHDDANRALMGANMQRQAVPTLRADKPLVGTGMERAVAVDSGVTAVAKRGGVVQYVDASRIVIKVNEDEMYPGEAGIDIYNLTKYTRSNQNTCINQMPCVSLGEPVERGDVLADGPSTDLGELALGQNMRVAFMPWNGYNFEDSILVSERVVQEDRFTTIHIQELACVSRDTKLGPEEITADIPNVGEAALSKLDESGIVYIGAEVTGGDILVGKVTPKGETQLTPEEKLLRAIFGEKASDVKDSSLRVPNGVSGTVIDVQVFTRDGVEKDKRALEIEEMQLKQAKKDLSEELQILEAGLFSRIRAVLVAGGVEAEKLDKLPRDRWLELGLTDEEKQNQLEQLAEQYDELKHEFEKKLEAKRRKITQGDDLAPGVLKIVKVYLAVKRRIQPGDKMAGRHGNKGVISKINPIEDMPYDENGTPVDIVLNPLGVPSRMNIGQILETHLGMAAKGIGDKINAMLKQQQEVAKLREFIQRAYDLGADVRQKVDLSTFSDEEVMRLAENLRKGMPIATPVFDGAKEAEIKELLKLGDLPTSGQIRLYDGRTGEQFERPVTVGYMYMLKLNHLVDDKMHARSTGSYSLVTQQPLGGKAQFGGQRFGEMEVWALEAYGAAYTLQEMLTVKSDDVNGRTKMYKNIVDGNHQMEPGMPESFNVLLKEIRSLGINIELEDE
E. coli RNA polymerase, sequence (P0A7Z4 whole entry, further chain): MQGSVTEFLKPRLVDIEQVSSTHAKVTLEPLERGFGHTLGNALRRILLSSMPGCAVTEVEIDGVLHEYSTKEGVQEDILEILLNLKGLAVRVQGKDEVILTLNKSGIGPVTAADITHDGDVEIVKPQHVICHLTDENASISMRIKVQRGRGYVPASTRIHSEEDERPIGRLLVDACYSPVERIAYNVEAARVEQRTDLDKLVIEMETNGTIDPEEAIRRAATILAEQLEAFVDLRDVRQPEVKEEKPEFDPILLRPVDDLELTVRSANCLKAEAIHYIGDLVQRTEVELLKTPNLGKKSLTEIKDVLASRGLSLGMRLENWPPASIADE
E. coli RNA polymerase, sequence (P00579 whole entry, further chain): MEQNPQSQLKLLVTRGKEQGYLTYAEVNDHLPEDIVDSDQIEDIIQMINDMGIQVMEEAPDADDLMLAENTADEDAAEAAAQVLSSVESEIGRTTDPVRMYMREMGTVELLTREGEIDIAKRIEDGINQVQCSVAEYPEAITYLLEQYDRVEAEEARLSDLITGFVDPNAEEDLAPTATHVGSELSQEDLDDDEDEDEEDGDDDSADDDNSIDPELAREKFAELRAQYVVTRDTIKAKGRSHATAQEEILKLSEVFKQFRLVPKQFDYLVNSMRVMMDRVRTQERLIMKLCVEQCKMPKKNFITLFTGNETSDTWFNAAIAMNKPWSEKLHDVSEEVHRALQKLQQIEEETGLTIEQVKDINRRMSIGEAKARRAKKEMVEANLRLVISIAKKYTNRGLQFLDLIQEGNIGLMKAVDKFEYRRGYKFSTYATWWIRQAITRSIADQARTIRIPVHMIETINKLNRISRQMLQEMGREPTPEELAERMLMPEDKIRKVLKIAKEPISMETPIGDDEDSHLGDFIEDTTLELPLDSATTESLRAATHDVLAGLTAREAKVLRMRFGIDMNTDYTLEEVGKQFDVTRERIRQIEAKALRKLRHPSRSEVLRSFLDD
E. coli RNA polymerase, sequence (P0A800 whole entry, further chain): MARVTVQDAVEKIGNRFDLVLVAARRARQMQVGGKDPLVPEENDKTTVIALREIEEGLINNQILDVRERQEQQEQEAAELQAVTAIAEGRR

In the case of CC[C@H](C)[C@@H]1NC(=O)[C@H](CO)NC(=O)CNC(=O)[C@H](CC(=O)O)NC(=O)CNC(=O)CNC(=O)CC[C@@H](C(=O)N[C@@H](Cc2ccc(O)cc2)C(=O)N[C@@H](Cc2ccccc2)C(=O)N[C@@H](CC(N)=O)C(=O)N[C@@H](CCCNC(=N)N)C(=O)N2CCC[C@H]2C(=O)N[C@@H](CCSC)C(=O)N[C@@H](Cc2c[nH]cn2)C(=O)N[C@H](C(=O)N[C@@H](Cc2c[nH]cn2)C(=O)N[C@@H](CC(=O)O)C(=O)N[C@@H](Cc2c[nH]c3ccccc23)C(=O)N[C@@H](CCC(N)=O)C(=O)N[C@H](C(=O)N[C@@H](CCSC)C(=O)N[C@@H](CC(=O)O)C(=O)N[C@@H](CO)C(=O)NCC(=O)N[C@@H](Cc2ccc(O)cc2)C(=O)N[C@@H](Cc2ccc(O)cc2)C(=O)NCC(=O)O)[C@@H](C)CC)[C@@H](C)CC)NC(=O)[C@H](C)NC1=O [ubonodin] (GGDGSIAEYFNRPMHIHDWQIMDSGYYG-OH; lactam N-8; C-terminus assumed), the “antimicrobial activity (in words)” value [1] is reported as “unable to kill”, the “MIC in M63 agar” value ([1]; serovar newport) is reported as over 500 µM and the “MIC via liquid growth assay” value [2] is reported as 31 µM (≈ 99.2 µg/mL). For the same compound, the “MIC via spot-on-lawn assay” value [3] was 40 µM (≈ 128 µg/mL), the “MIC in M63 agar” value [4] was 500 µM (≈ 1600 µg/mL) and the “MIC via spot-on-lawn assay” value [5] was 20 µM (≈ 64 µg/mL). The “antimicrobial activity (in words)” value [6] was “no activity”, the “MIC in M63 agar” value ([6]; ATCC 10248) was over 500 µM and the “MIC via liquid growth assay” value [7] was over 31 µM. For the same compound, the “MIC in M63 agar” value [8] was over 500 µM, the “MIC via spot-on-lawn assay” value [9] was 40 µM (≈ 128 µg/mL) and the “MIC via spot-on-lawn assay” value [10] was 40 µM (≈ 128 µg/mL). The “activity against B. multivorans after heating” value [11] was “maintains its activity; also recorded: loses activity”, the “potency in abortive transcription assays relative to MccJ25” value [12] was “somewhat lower than that of MccJ25” and the “inhibition of E. coli RNA polymerase (abortive transcription initiation)” value ([12]; 0, 1, 10 or 100 μM peptide) was “inhibits transcription initiation; also recorded: able to inhibit E. coli RNAP; also recorded: inhibits E. coli RNA polymerase”. The “MIC via liquid growth assay” value [13] was over 31 µM, the “thermal degradation by LC-MS” value [14] was “fragments into a variety of different structures; also recorded: major species in this sample is still intact ubonodin” and the “MIC in M63 agar” value [15] was over 500 µM. For the same compound, the “MIC via liquid growth assay” value [16] was 4 µM (≈ 12.8 µg/mL), the “MIC in M63 agar” value [17] was over 500 µM and the “antimicrobial activity (in words)” value [18] was “unable to kill”. For the same compound, the “MIC in M63 agar” value ([18]; O157:H7) was over 500 µM, the “MIC in M63 agar” value [19] was 8 µM (≈ 25.6 µg/mL) and the “MIC in M63 agar” value ([19]; ATCC 17616) was 7.8 µM (≈ 25 µg/mL). For the same compound, the “antimicrobial activity (in words)” value [20] was “no activity”.

For citrocin, the “susceptibility of strain to peptide” value [21] is listed as “susceptible” and the “susceptibility of strain to peptide” value [22] is listed as “susceptible”.

In the case of “H17A (GGDGSIAEYFNRPMHIADWQIMDSGYYG; listed as Burkholderia ubonensis)”, the “antimicrobial activity of purified ubonodin variants relative to wild-type” value [19] is reported as “near wild-type activity”.

For “microcin J25 (GGAGHVPEYFVGIGTPISFYG) [MccJ25]”, the “susceptibility of strain to peptide” value [21] is given as “susceptible” and the “susceptibility of strain to peptide” value [22] is given as “susceptible”.

Source: patent US20220380415A1, “Antibiotic Peptides, Compositions and Uses Thereof” (priority 2019, published 2022)
